Data published in patent US11332712B2, “Cell culture media and method for culturing breast cancer cells” (UNIVERSITY OF MIAMI, priority 2013, dated 2022).
Entries after “also recorded” stand apart in the source; their conditions may differ.

Assays:
[1] = test system: breast cancer cell lines (T47D, ZR751, MCF7 and BT474); experiment: Breast cancer cell line proliferation assay with and without AR agonist (FIG. 8), trypan blue/Cellometer count; assay type: cell-based; settings: 10 nM with 17 beta-Estradiol (10 nM), phenol-red free DMEM with 5% csFBS, 4 days
Protocol: Four different breast cancer cell lines (T47D, ZR751, MCF7 and BT474) were cultured both with and without AR agonist […]. […] After 3 days, an AR agonist R1881 (10 nM) and 17 beta-Estradiol (10 nM) were added to the media. […] All the conditions were carried out in triplicate and the experiments were repeated at least twice.

human breast tumor cells = experiment: Culture of human breast tumor cells, effect of medium components (Example 1); assay type: cell-based; settings: preliminary experiments; compared to Retinol
Protocol: The base WIT cell culture medium contains 0.1 mg/L Calciferol (vitamin D2) and this medium is supplemented with 2-5% fetal bovine serum (FBS) to culture human ovarian carcinoma cells (WIT-OC medium). It was hypothesized that both of these components should be removed from the cell culture medium for the successful culture of human breast cancer cells because FBS contains vitamins and hormones such as vitamin D and androgens. […] Thus, charcoal stripped fetal bovine serum (csFBS) was utilized to culture breast tumor cells because activated carbon removes non-polar material such as lipophilic (lipid-related) materials (virus, certain growth factors, hormones and cytokines) regardless of molecular weight but has little effect on salts, glucose, amino acids, etc. The WIT-OC medium also contained vitamin A acetate (Retinol) which is a weaker form of vitamin A, compared to all-trans-retinoic acid (ATRA).
Thus, in order to formulate a cell culture medium optimized to culture human breast tumor cells, as opposed to ovarian tumors, and other tumors, a WIT cell culture medium was prepared without any vitamin D, vitamin A, or androgens, and this medium was supplemented 100 nM ATRA, and 0.5-2% charcoal stripped fetal bovine serum (csFBS). We refer to this medium as WIT-BC, or WIT-BCe when estrogen is added.

C[C@]1(O)CC[C@H]2[C@@H]3CCC4=CC(=O)CCC4=C3C=C[C@@]21C [R1881, methyltrienolone]
effect on breast cancer cell proliferation [1]: inhibitory effect

CC1=C(/C=C/C(C)=C/C=C/C(C)=C/C(=O)O)C(C)(C)CCC1 [ATRA, all-trans-retinoic acid]
effect on growth/culture of breast tumor cells (human breast tumor cells): promoting the growth of the breast tumor cells; also recorded: needed for the optimum culture
